Measured values as given in patent US20240269170A1, “Treatment of Inflammatory Conditions or Diseases” (Queen Mary University of London, priority 2021, published 2024).

Test system: mononuclear phagocytes
Experiment: Phosphoproteomic analysis of GM-CSF differentiated human monocytes incubated with MCTR3 vs vehicle
Assay type: cell-based
Procedure: FIG. 5: MCTR3 reprograms the arthritic monocyte-derive macrophage transcriptome. A-B) Arthritis was induced and prolonged in C57BL/6 mice by administering 100 μL K/B×N serum i.p. on day 0, 2 and 9. Mice were treated on day 12 i.v. with 2×10^6 monocytes isolated from arthritic mice and incubated either with vehicle (PBS+0.1% DMSO) or 10 μM RG108, a DNMT inhibitor, for 15 min and then with a vehicle (PBS+0.1% EtOH) or 1 nM MCTR3 for 90 min (37° C.). Disease course was monitored daily by assessing A) clinical scores and B) oedema. Results are mean±SEM and expressed as percent change from day of treatment. n=10 mice per group. Statistical differences were evaluated using Two-way ANOVA. (C-E) K/B×N serum (100 μL, i.p.) was administered to mice on days 0, 2 and 9 to induce and prolong inflammatory arthritis. On day 12, mice were treated i.v. with 2×10^6 monocytes isolated from arthritic mice that were previously incubated with either vehicle (PBS+0.1% EtOH) or 1 nM MCTR3 for 90 min. Cells were isolated from paw joints on day 22, sorted for CD45^+ cells and single cell RNA sequencing was performed. […] Results are from n=4 mice per group. (F-G) Monocytes were isolated from human healthy volunteers, these cells were then incubated with GM-CSF (7 days, 37° C.) then with either Vehicle or MCTR3 (1 nM, 37° C.). Cells were lysed and the phosphoproteome determined using mass spectrometry. (F) GO Biological pathway analysis and (G) KEGG pathway analysis for proteins found to be differentially phosphorylated in cells incubated with MCTR3 when compared to those incubated with vehicle. Results are representative of cells from n=3 healthy volunteers per group
To further explore the mechanisms regulated by MCTR3 to reprogram mononuclear phagocytes we next evaluated the signaling pathways activated by MCTR3 using a phosphoproteomic approach. […] This regulation was also observed when using the Kyoto Encyclopaedia of Genes and Genomes pathway database that highlighted an enrichment of spliceosome linked proteins as well as proteins involved in mRNA surveillance by MCTR3. (FIG. 5G and Table 7). […] These findings indicate that MCTR3 promotes the reprograming of mononuclear phagocytes by both regulating epigenetic programs and protein translation to facilitate the termination of inflammation and joint protection. They also support the hypothesis that MCTR3-reprogrammed monocytes recruited into arthritic joints exert their activities via the upregulation of tissue protective pathways. […]
For evaluation of signalling pathways activated by MCTR3, monocytes were isolated from peripheral blood of healthy volunteers, incubated with GM-CSF (20 ng/ml, in RPMI containing 10% human serum) for 7 days and then incubated with MCTR3 (1 nM, in DPBS^+/+).
Phosphoproteomics experiments were performed using mass spectrometry. In brief, cells were lysed in 8M urea buffer and supplemented with phosphatase inhibitors (10 mM Na3VO4, 100 mM B-glycerol phosphate and 25 mM Na2H2P2O7 (Sigma)). Proteins were digested into peptides using trypsin. Phosphopeptides were enriched from total peptides by TiO2 chromatography. Dried phosphopeptides were dissolved in 0.1% TFA and analysed by nanoflow ultimate 3000 RSL nano instrument was coupled on-line to a Q Exactive plus mass spectrometer (Thermo Fisher Scientific). Gradient elution was from 3% to 35% buffer B in 120 min at a flow rate 300 nL/min with buffer A being used to balance the mobile phase (buffer A was 0.1% formic acid in water and B was 0.1% formic acid in acetonitrile). The spray voltage was 1.95 kV and the capillary temperature was set to 255° C. The Q-Exactive plus was operated in data dependent mode with one survey MS scan followed by 15 MS/MS scans. The full scans were acquired in the mass analyser at 375-1500m/z with the resolution of 70 000, and the MS/MS scans were obtained with a resolution of 17 500. […]

[1] = KEGG Pathway, differentially phosphorylated proteins, 1 nM MCTR3 vs vehicle
[2] = Reactome Gene Sets, differentially phosphorylated proteins, 1 nM MCTR3 vs vehicle

CC/C=C\C/C=C\C[C@H](O)[C@@H](/C=C/C=C/C=C\C/C=C\CCC(=O)O)SC[C@H](N)C(=O)O [MCTR3, 13R-cysteinyl, 14S-hydroxy-4Z, 7Z, 9E, 11E, 13R, 14S, 16Z, 19Z-docosahexaenoic acid]
phosphorylation status of SETD2, Histone deacetylase 1 and Histone deacetylase 2 (1 nM MCTR3): regulated | proteins involved in post-transcriptional regulation and protein translation (differential phosphorylation, GO analysis) (1 nM MCTR3): marked regulation | Endocytosis (ko04144) enrichment LogP [1]: −3.117 | Fc gamma R-mediated phagocytosis (ko04666) enrichment LogP [1]: −2.545 | Glycolysis, core module involving three-carbon compounds (M00002) enrichment LogP [1]: −4.6043 | Guanine ribonucleotide biosynthesis IMP => GDP, GTP (M00050) enrichment LogP [1]: −3.0343 | Herpes simplex infection (ko05168) enrichment LogP [1]: −2.0881 | Neurotrophin signaling pathway (ko04722) enrichment LogP [1]: −2.6025 | Notch signaling pathway (ko04330) enrichment LogP [1]: −4.0393 | Spliceosome (hsa03040) enrichment LogP [1]: −7.662 | Transcriptional misregulation in cancer (ko05202) enrichment LogP [1]: −2.704 | mRNA surveillance pathway (ko03015) enrichment LogP [1]: −3.284 | parathyroid hormone synthesis, secretion and action (hsa04928) enrichment LogP [1]: −2.088 | Apoptotic execution phase (R-HSA-75153) enrichment LogP [2]: −3.842 | COPII-mediated vesicle transport (R-HSA-204005) enrichment LogP [2]: −2.4 | Diseases of signal transduction by growth factor receptors and second messengers (R-HSA-5663202) enrichment LogP [2]: −4.434 | Estrogen-dependent gene expression (R-HSA-9018519) enrichment LogP [2]: −2.633 | Formation of RNA Pol II elongation complex (R-HSA-112382) enrichment LogP [2]: −4.381 | Initiation of Nuclear Envelope (NE) Reformation (R-HSA-2995383) enrichment LogP [2]: −3.748 | Interferon gamma signaling (R-HSA-877300) enrichment LogP [2]: −2.545 | Nervous system development (R-HSA-9675108) enrichment LogP [2]: −3.151 | Neutrophil degranulation (R-HSA-6798695) enrichment LogP [2]: −2.465 | Prolonged ERK activation events (R-HSA-169893) enrichment LogP [2]: −2.935 | RHO GTPase Effectors (R-HSA-195258) enrichment LogP [2]: −3.726 | Regulation of MECP2 expression and activity (R-HSA-9022692) enrichment LogP [2]: −6.229 | SUMO E3 ligases SUMOylate target proteins (R-HSA-3108232) enrichment LogP [2]: −6.009 | Signaling by NTRKs (R-HSA-166520) enrichment LogP [2]: −5.116 | TRAF3-dependent IRF activation pathway (R-HSA-918233) enrichment LogP [2]: −2.935 | Transcriptional Regulation by TP53 (R-HSA-3700989) enrichment LogP [2]: −7.191 | Vesicle-mediated transport (R-HSA-5653656) enrichment LogP [2]: −6.611 | p75 NTR receptor-mediated signalling (R-HSA-193704) enrichment LogP [2]: −6.512
